Experimental data: US12180207B2 (ARRAY BIOPHARMA INC., priority 2018, dated 2024)

Legend:
[1] = biological target: dephosphorylated FGFR1 (SEQ ID NO: 1, amino acids 458 to 765) (Homo sapiens (Human), UniProt P11362); experiment: FGFR enzyme binding assay (HTRF tracer displacement), FGFR1; settings: 5 nM dephosphorylated FGFR1, average of multiple determinations if made
How it was run: (§1)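 Kinase and tracer were incubated with compound for 60 minutes at 22° C. Tracer displacement was then measured by HTRF, and results were expressed as POC with 1 μM control inhibitor defining full displacement.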

[2] = biological target: phosphorylated FGFR3 (SEQ ID NO: 5, amino acids 449 to 759) (Homo sapiens (Human), UniProt P22607); experiment: FGFR enzyme binding assay (HTRF tracer displacement), FGFR3; settings: 5 nM phosphorylated FGFR3, average of multiple determinations if made
How it was run: as §1

[3] = biological target: recombinant human FGFR1 catalytic domain (amino acids 308-731) (Homo sapiens (Human), UniProt P11362); experiment: FGFR1 enzyme activity assay (LanthaScreen TR-FRET); type: biochemical; settings: 20 min incubation at 22° C., average of multiple determinations if made, read-out: FGFR1 Enz FRET IC50
How it was run: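 His-tagged FGFR1 kinase domain with 100 nM Alexa Fluor 647-poly-GT peptide and ATP in pH 7.5 HEPES/MgCl2 buffer with 2% DMSO, 20 min at 22 °C. Quenched with EDTA plus 2 nM Eu-PY20 antibody and read after 60 min. IC50 comes from a 4-parameter fit of percent of control.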

[4] = biological target: recombinant human FGFR2 cytoplasmic domain (amino acids 403-822) (Homo sapiens (Human), UniProt P21802); experiment: FGFR2 enzyme activity assay (LanthaScreen TR-FRET); type: biochemical; settings: 15 μM ATP, 20 min incubation at 22° C., average of multiple determinations if made, read-out: FGFR2 Enz FRET IC50
How it was run: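 Substrate phosphorylation was read by TR-FRET using Eu-PY20 antibody (60 min, 22 °C) after a 20 min, 22 °C reaction. The reaction used 15 μM ATP, 100 nM fluorescent poly-GT peptide and His-tagged FGFR2 403-822 ([…]) at pH 7.5 with 2% DMSO.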

[5] = biological target: recombinant human FGFR3 (amino acids R397-T806) (Homo sapiens (Human), UniProt P22607); experiment: FGFR3 enzyme activity assay (LanthaScreen TR-FRET); type: biochemical; settings: 25 μM ATP, 10 min incubation at 22° C., average of multiple determinations if made, read-out: FGFR3 Enz FRET IC50
How it was run: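 GST-HIS6-tagged human FGFR3 (R397-T806) was reacted with 100 nM Alexa Fluor 647-Poly-GT substrate and 25 μM ATP plus compound in HEPES/MgCl2/Triton buffer, pH 7.5, 2% DMSO, for 10 min at 22 °C.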

Sequence of phosphorylated FGFR3 (SEQ ID NO: 5, amino acids 449 to 759) (P22607 449-759): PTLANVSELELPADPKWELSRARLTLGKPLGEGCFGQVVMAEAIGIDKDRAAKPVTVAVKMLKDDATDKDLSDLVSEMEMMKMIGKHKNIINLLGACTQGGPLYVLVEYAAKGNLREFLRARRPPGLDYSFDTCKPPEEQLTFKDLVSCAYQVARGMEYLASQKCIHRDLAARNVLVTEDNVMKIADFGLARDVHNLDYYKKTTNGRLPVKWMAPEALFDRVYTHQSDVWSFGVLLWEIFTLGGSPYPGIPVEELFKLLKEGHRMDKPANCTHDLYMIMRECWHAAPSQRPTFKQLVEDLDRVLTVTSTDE
Sequence of recombinant human FGFR1 catalytic domain (amino acids 308-731) (P11362 other isoform, or with tags, fused parts or gaps): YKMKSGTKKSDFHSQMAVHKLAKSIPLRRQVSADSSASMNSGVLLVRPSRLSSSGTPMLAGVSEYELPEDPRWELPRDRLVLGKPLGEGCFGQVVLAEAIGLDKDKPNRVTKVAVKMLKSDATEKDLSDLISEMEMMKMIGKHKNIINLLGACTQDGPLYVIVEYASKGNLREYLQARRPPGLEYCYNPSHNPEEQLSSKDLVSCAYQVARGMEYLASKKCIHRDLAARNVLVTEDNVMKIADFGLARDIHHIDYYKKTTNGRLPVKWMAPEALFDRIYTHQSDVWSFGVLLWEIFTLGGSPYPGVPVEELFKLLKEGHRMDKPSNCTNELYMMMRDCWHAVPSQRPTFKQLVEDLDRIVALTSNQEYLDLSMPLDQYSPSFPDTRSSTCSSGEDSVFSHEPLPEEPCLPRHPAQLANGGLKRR
Sequence of dephosphorylated FGFR1 (SEQ ID NO: 1, amino acids 458 to 765) (P11362 458-765): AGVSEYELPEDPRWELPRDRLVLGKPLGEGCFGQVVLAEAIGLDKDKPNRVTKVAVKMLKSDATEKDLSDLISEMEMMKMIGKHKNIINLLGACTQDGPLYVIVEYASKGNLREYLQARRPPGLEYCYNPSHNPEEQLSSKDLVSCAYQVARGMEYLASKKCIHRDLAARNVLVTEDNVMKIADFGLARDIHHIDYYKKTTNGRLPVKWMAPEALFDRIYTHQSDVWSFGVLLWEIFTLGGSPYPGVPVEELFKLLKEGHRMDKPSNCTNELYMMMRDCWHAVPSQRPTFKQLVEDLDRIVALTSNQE
Sequence of recombinant human FGFR2 cytoplasmic domain (amino acids 403-822) (P21802 402-821): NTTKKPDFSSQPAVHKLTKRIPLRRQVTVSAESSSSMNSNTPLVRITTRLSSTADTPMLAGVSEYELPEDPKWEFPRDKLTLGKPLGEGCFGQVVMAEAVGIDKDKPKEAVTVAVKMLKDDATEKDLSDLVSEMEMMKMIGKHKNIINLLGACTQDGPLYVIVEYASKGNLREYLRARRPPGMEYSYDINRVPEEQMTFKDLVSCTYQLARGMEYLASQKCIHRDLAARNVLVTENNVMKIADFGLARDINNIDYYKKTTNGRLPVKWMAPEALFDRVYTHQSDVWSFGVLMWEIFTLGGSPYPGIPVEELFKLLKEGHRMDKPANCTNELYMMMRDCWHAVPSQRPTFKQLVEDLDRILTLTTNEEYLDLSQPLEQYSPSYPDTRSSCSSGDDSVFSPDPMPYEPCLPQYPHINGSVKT
Sequence of recombinant human FGFR3 (amino acids R397-T806) (P22607 397-806): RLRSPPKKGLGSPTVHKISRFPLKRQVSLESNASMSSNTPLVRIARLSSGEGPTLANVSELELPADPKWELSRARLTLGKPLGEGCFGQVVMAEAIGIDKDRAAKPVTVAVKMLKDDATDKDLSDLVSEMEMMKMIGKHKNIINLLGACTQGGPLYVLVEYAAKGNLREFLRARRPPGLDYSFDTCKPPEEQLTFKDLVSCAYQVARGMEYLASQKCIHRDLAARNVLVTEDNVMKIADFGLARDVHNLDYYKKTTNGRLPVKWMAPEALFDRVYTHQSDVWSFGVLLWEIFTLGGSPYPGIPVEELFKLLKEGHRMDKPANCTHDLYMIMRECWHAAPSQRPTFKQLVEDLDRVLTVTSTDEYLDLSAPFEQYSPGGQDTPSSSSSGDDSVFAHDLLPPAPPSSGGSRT

| Compound | IC50 [1] [nM] | IC50 [2] [nM] | IC50 [3] [nM] | IC50 [4] [nM] | IC50 [5] [nM] |
| --- | --- | --- | --- | --- | --- |
| C=CC(=O)N1C2CC1CN(C(=O)N1CCC(n3cc(-c4cc(OC)c5c(C#N)cnn5c4)cn3)CC1)C2 [Example 1, 6-(1-(1-(6-acryloyl-3,6-diazabicyclo[3.1.1]heptane-3-carbonyl)piperidin-4-yl)-1H-pyrazol-4-yl)-4-methoxypyrazolo[1,5-a]pyridine-3-carbonitrile] | 50 | 4 | 5 | 15 | 5 |
| C=CC(=O)N1C2COCC1CN(C(=O)N1CCC(n3cc(-c4cc(OC)c5c(C#N)cnn5c4)cn3)CC1)C2 [Example 3, 6-(1-(1-(9-acryloyl-3-oxa-7,9-diazabicyclo[3.3.1]nonane-7-carbonyl)piperidin-4-yl)-1H-pyrazol-4-yl)-4-methoxypyrazolo[1,5-a]pyridine-3-carbonitrile] | 44 | 3 | 8 | 5 | 2 |
| C=CC(=O)N1CCC(C#N)(C(=O)N2CCC(n3cc(-c4cc(OC)c5c(C#N)cnn5c4)cn3)CC2)CC1 [Example 14, 6-(1-(1-(1-acryloyl-4-cyanopiperidine-4-carbonyl)piperidin-4-yl)-1H-pyrazol-4-yl)-4-methoxypyrazolo[1,5-a]pyridine-3-carbonitrile] | 84 | 7 | 8 | 3 | 3 |
| C=CC(=O)N1CCC(C(=O)N2CCC(n3cc(-c4cc(OC)c5c(C#N)cnn5c4)cn3)CC2)C(F)(F)C1 (centres unmarked) [Example 15, 6-(1-(1-(1-acryloyl-3,3-difluoropiperidine-4-carbonyl)piperidin-4-yl)-1H-pyrazol-4-yl)-4-methoxypyrazolo[1,5-a]pyridine-3-carbonitrile] | 32 | 2 | 7 | 2 | 2 |
| C=CC(=O)N1CC2(CCC(C(=O)N3CCC(n4cc(-c5cc(OC)c6c(C#N)cnn6c5)cn4)CC3)CC2)C1 [Example 21, 6-(1-(1-(2-acryloyl-2-azaspiro[3.5]nonane-7-carbonyl)piperidin-4-yl)-1H-pyrazol-4-yl)-4-methoxypyrazolo[1,5-a]pyridine-3-carbonitrile] | 57 | 5 | 10 | 3 | 3 |
| C=CC(=O)Nc1cccc(C(=O)N2CCC(n3cc(-c4cc(OC)c5c(C#N)cnn5c4)cn3)CC2)c1 [Example 22, N-(3-(4-(4-(3-cyano-4-methoxypyrazolo[1,5-a]pyridin-6-yl)-1H-pyrazol-1-yl)piperidine-1-carbonyl)phenyl)acrylamide] | 112 | 8 | 21 | 5 | 4 |
| C=CC(=O)Nc1ccc(C(=O)N2CCC[C@@H](n3cc(-c4cc(OC)c5c(C#N)cnn5c4)cn3)C2)cc1 [Example 23, (R)-N-(4-(3-(4-(3-cyano-4-methoxypyrazolo[1,5-a]pyridin-6-yl)-1H-pyrazol-1-yl)piperidine-1-carbonyl)phenyl)acrylamide] | 431 | 54 | 36 | 12 | 16 |
| C=CC(=O)Nc1cccc(C(=O)N2CCC[C@@H](n3cc(-c4cc(OC)c5c(C#N)cnn5c4)cn3)C2)c1 [Example 24, (R)-N-(3-(3-(4-(3-cyano-4-methoxypyrazolo[1,5-a]pyridin-6-yl)-1H-pyrazol-1-yl)piperidine-1-carbonyl)phenyl)acrylamide] | 310 | 69 | 63 | 23 | 31 |
| C=CC(=O)Nc1ccccc1C(=O)N1CCC[C@@H](n2cc(-c3cc(OC)c4c(C#N)cnn4c3)cn2)C1 [Example 25, (R)-N-(2-(3-(4-(3-cyano-4-methoxypyrazolo[1,5-a]pyridin-6-yl)-1H-pyrazol-1-yl)piperidine-1-carbonyl)phenyl)acrylamide] | 350 | 52 | 53 | 18 | 12 |
| C=CC(=O)N1CC[C@H](C(=O)N2CCC(n3cc(-c4cc(OC)c5c(C#N)cnn5c4)cn3)CC2)C1 [Example 28, (S)-6-(1-(1-(1-acryloylpyrrolidine-3-carbonyl)piperidin-4-yl)-1H-pyrazol-4-yl)-4-methoxypyrazolo[1,5-a]pyridine-3-carbonitrile] | 105 | 17 | 18 | 5 | 9 |
| C=CC(=O)N1CC[C@@H](C(=O)N2CCC(n3cc(-c4cc(OC)c5c(C#N)cnn5c4)cn3)CC2)C1 [Example 29, (R)-6-(1-(1-(1-acryloylpyrrolidine-3-carbonyl)piperidin-4-yl)-1H-pyrazol-4-yl)-4-methoxypyrazolo[1,5-a]pyridine-3-carbonitrile] | 251 | 43 | 24 | 8 | 11 |
| C=CC(=O)N1CCC(F)(C(=O)N2CCC(n3cc(-c4cc(OC)c5c(C#N)cnn5c4)cn3)CC2)C1 (centres unmarked) [Example 30, 6-(1-(1-(1-acryloyl-3-fluoropyrrolidine-3-carbonyl)piperidin-4-yl)-1H-pyrazol-4-yl)-4-methoxypyrazolo[1,5-a]pyridine-3-carbonitrile] | 51 | 5 | 9 | 3 | 2 |
| C=CC(=O)N1CCC(C#N)(C(=O)N2CCC(n3cc(-c4cc(OC)c5c(C#N)cnn5c4)cn3)CC2)C1 (centres unmarked) [Example 31, 6-(1-(1-(1-acryloyl-3-cyanopyrrolidine-3-carbonyl)piperidin-4-yl)-1H-pyrazol-4-yl)-4-methoxypyrazolo[1,5-a]pyridine-3-carbonitrile] | 26 | 2 | 8 | 2 | 2 |
| C=CC(=O)N1CC(C(=O)N2CCC(n3cc(-c4cc(OC)c5c(C#N)cnn5c4)cn3)CC2)C1 [Example 36, 6-(1-(1-(1-acryloylazetidine-3-carbonyl)piperidin-4-yl)-1H-pyrazol-4-yl)-4-methoxypyrazolo[1,5-a]pyridine-3-carbonitrile] | 59 | 4 | 11 | – | 4 |
| C=CC(=O)N1CC(F)(C(=O)N2CCC(n3cc(-c4cc(OC)c5c(C#N)cnn5c4)cn3)CC2)C1 [Example 37, 6-(1-(1-(1-acryloyl-3-fluoroazetidine-3-carbonyl)piperidin-4-yl)-1H-pyrazol-4-yl)-4-methoxypyrazolo[1,5-a]pyridine-3-carbonitrile] | 289 | 3 | 16 | 7 | 4 |
| C=CC(=O)N1CC(C)(C(=O)N2CCC(n3cc(-c4cc(OC)c5c(C#N)cnn5c4)cn3)CC2)C1 [Example 38, 6-(1-(1-(1-acryloyl-3-methylazetidine-3-carbonyl)piperidin-4-yl)-1H-pyrazol-4-yl)-4-methoxypyrazolo[1,5-a]pyridine-3-carbonitrile] | 33 | 2 | 10 | 3 | 3 |
| C=CC(=O)N1CC(C#N)(C(=O)N2CCC(n3cc(-c4cc(OC)c5c(C#N)cnn5c4)cn3)CC2)C1 [Example 39, 6-(1-(1-(1-acryloyl-3-cyanoazetidine-3-carbonyl)piperidin-4-yl)-1H-pyrazol-4-yl)-4-methoxypyrazolo[1,5-a]pyridine-3-carbonitrile] | 26 | 2 | 11 | 5 | 3 |
| C=CC(=O)N1CC(CC)(C(=O)N2CCC(n3cc(-c4cc(OC)c5c(C#N)cnn5c4)cn3)CC2)C1 [Example 40, 6-(1-(1-(1-acryloyl-3-ethylazetidine-3-carbonyl)piperidin-4-yl)-1H-pyrazol-4-yl)-4-methoxypyrazolo[1,5-a]pyridine-3-carbonitrile] | 38 | 5 | 9 | 3 | 2 |
| C=CC(=O)Nc1ccc(C(=O)N2CCC(n3cc(-c4cc(OC)c5c(C#N)cnn5c4)cn3)CC2)cc1 [Example 177, N-(4-(4-(4-(3-cyano-4-methoxypyrazolo[1,5-a]pyridin-6-yl)-1H-pyrazol-1-yl)piperidine-1-carbonyl)phenyl)acrylamide] | – | – | 11 | 4 | 8 |
